The values below come from PMC5479785, “Tandem malonate-based glucosides (TMGs) for membrane protein structural studies” (Scientific Reports, 2017).

Experiment [1] has as its target T1, MelBSt (Salmonella enterica, UniProt P30878).
T1 construct: gene melB; wild type, C-terminal 10-His tag, plasmid pK95ΔAHB/WT MelBSt/CH10; detergent extract of RSO vesicles of E. coli DW2
Nature of the experiment: reversal of Trp to D2G FRET by displacement. Type of experiment: biochemical. The following applies: excess melibiose against 10 μM D2G, 100 mM KPi, 100 mM NaCl, pH 7.5, DDM; competitive.

Experiment [2] concerns the target T2, MelBEc (Escherichia coli, UniProt P02921).
T2 construct: gene melB; expressed in E. coli DW2 (ΔmelB ΔlacZY); detergent extract of RSO membrane vesicles
Nature of the experiment: reversal of Trp to D2G FRET by displacement. Type of experiment: biochemical. The note with it: excess melibiose against 10 μM D2G, 100 mM KPi, 100 mM NaCl, pH 7.5, TMG-A12 or TMG-A13; competitive.

Another experiment deals with T3, β2AR (Homo sapiens, UniProt P07550).
T3 construct: gene ADRB2; expressed in Sf9 insect cells (baculovirus), purified in DDM
T3 sequence (P07550 whole entry): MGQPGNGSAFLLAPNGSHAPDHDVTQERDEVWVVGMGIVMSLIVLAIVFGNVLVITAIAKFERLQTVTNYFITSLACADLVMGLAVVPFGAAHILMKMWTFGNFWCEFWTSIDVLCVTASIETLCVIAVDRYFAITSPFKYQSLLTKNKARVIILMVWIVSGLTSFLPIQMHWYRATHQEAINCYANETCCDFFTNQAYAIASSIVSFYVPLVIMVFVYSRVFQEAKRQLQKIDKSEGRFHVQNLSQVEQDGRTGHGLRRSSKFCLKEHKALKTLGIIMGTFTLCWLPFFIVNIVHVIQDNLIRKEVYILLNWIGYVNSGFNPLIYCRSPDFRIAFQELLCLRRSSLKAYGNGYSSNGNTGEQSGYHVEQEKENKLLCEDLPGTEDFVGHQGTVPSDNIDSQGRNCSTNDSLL
Nature of the experiment: radioligand binding, G-50 column separation. The following applies: 10 nM [3H]-DHA, 20 mM HEPES pH 7.5, 100 mM NaCl, 0.5 mg/mL BSA, DDM or TMG detergent; antagonist; labelled compound.

The target of experiment [3] is T1, MelBSt. As to the kind of experiment: Trp to D2G FRET in detergent extract of membrane vesicles. Type of experiment: biochemical. The following applies: 10 μM D2G, 100 mM KPi, 100 mM NaCl, pH 7.5, DDM; fluorescent ligand.
Experiment [4] concerns the target T2, MelBEc. The description is as above. The following applies: 10 μM D2G, 100 mM KPi, 100 mM NaCl, pH 7.5, TMG-A12 or TMG-A13; fluorescent ligand. Type of experiment: biochemical.

T1 sequence (P30878 whole entry): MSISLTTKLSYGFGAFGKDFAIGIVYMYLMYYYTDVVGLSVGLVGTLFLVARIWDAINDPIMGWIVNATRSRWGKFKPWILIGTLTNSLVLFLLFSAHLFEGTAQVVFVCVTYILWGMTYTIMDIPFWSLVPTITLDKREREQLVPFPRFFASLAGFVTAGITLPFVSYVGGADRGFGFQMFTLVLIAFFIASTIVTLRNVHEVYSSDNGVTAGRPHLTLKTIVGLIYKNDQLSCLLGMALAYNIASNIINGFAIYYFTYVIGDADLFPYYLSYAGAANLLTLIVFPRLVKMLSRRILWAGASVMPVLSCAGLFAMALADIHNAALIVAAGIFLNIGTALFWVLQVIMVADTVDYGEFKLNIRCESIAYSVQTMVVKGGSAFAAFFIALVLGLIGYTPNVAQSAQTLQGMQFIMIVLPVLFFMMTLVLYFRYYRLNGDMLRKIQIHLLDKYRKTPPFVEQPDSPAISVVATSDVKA
T2 sequence (P02921 2-473): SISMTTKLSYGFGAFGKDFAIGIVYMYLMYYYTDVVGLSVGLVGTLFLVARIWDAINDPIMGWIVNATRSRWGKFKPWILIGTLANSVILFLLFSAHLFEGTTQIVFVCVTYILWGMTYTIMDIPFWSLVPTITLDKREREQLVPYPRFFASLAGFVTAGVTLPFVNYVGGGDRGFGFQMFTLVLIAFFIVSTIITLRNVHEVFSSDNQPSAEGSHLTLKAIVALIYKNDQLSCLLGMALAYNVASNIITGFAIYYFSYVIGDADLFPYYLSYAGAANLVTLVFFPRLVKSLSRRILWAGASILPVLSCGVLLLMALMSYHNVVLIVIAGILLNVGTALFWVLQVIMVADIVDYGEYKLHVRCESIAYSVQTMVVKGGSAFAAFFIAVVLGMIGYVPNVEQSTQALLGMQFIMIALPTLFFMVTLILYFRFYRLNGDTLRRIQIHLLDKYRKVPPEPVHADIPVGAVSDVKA

Take `OC[C@H]1O[C@H](OC[C@H]2OC(O)[C@H](O)[C@@H](O)[C@@H]2O)[C@H](O)[C@@H](O)[C@H]1O` (some centres unmarked) [melibiose]: the FRET reversal result at MelBSt [1] was “Upon addition of melibiose, the DDM-solubilized MelBSt gave a large reversal in the FRET signal”; on MelBEc [2], “reversed by adding a non-fluorescent sugar substrate (i.e., melibiose)”. As to `CCCc1ccccc1OCC(O)CNC(C)C` (centres unmarked) [[3H]-dihydroalprenolol], at β2AR, the “[3H]-DHA binding” value is “receptor stability was assessed via a ligand binding assay using the antagonist, [^3H]-dihydroalprenolol”. With `CN(C)c1cccc2c(S(=O)(=O)NCCS[C@@H]3O[C@H](CO)[C@H](O)[C@H](O)[C@H]3O)cccc12` [D2G, 2′-(N-dansyl)aminoalkyl-1-thio-β-D-galactopyranoside], the “Trp→D2G FRET” value is reported as “a functional MelBSt gives an increase in fluorescence intensity induced by Trp→ D^2G FRET” on MelBSt [3] and “TMG-A12 or TMG-A13 resulted in a functional MelBEc as demonstrated by large changes in FRET signal” at MelBEc [4].
